The target in one test is human PDE2A1 (Homo sapiens (Human), UniProt O00408). As to the kind of experiment: PDE2 fluorescence polarization (IMAP FP) inhibition assay, human enzyme. It counts as biochemical. The protocol:
(§1) The activity of the compounds in accordance with the present invention as PDE2 inhibitors may be readily determined using a fluorescence polarization (FP) methodology (Huang, W., et al., J. Biomol Screen, 2002, 7: 215).
Selectivity for PDE2, as compared to other PDE families, was assessed using the IMAPR technology. Human PDE10A2 enzyme was prepared from cytosolic fractions of transiently transfected HEK cells. All other PDE's were GST Tag human enzyme expressed in insect cells and were obtained from BPS Bioscience (San Diego, Calif.): PDE1A (Cat#60010), human PDE2A1(Cat#60020), PDE3A (Cat#60030), PDE4A1A (Cat#60040), PDE5A1 (Cat#60050), PDE6C (Cat#60060), PDE7A (Cat#60070), PDE8A1 (Cat#60080), PDE9A2 (Cat#60090), PDE11A4 (Cat#60110).
Assays for PDE 1 through 11 were performed in parallel at room temperature in 384-well microtiter plates with an incubation volume of 20.2 μL. Solutions of test compounds were prepared in DMSO and serially diluted with DMSO to yield 30 μL of each of ten solutions differing by 3-fold in concentration, at 32 serial dilutions per plate. […] A Labcyte POD 810 (Labcyte, Sunnyvale, Calif.) was used to dispense 200 nL from each well of the titration plate to make eleven copies of the assay plate for each titration, one copy for each PDE enzyme. A solution of each enzyme (dilution from aliquots, sufficient to produce 20% substrate conversion) and a separate solution of FAM-labeled cAMP or FAM-labeled cGMP from Molecular Devices (Sunnyvale, Calif., product # R7506 or cGMP#R7508), at a final concentration of 50 nM were made in the assay buffer (10 mM Tris HCl, pH 7.2, 10 mM MgCl2, 0.05% NaN3 0.01% Tween-20, and 1 mM DTT). Note that the substrate for PDE2 is 50 nM FAM cAMP containing 1000 nM of cGMP. The enzyme and the substrate were then added to the assay plates in two consecutive additions of 10 μL and then shaken to mix. The reaction was allowed to proceed at room temperature for 60 minutes. A binding solution was then made from the kit components, comprised of 80% Solution A, 20% Solution B and binding reagent at a volume of 1/600 the total binding solution. The enzymatic reaction was stopped by addition of 60 μL of the binding solution to each well of the assay plate. The plates were sealed and shaken for 10 seconds. The plates were incubated at room temperature for one hour, then the parallel and perpendicular fluorescence was measured using a Tecan Genios Pro plate reader (Tecan, Switzerland). The apparent inhibition constants for the compounds against all 11 PDE's was determined from the parallel and perpendicular fluorescent readings as described for PDE10 FP assay using the following apparent KM values for each enzyme and substrate combination: PDE1A (FAM cGMP) 70 nM, human PDE2A1 (FAM cAMP) 10,000 nM, PDE3A (FAM cAMP) 50 nM, PDE4A1A (FAM cAMP) 1500 nM, PDE5A1 (FAM cGMP) 400 nM, PDE6C (FAM cGMP) 700 nM, PDE7A (FAM cAMP) 150 nM, PDE8A1 (FAM cAMP) 50 nM, PDE9A2 (FAM cGMP) 60 nM, […] (FAM cAMP) 150 nM, PDE11A4 (FAM cAMP) 1000 nM. The intrinsic PDE2 inhibitory activity of a compound which may be used in accordance with the present invention may be determined by these assays. […]
In general terms: Fluorescence polarisation rises when a labelled molecule tumbles more slowly, as on binding a larger partner.

The next test has as its target Rhesus PDE2A3 (Macaca mulatta, UniProt B3VTJ2). Description: PDE2 fluorescence polarization (IMAP FP) inhibition assay, rhesus enzyme. It counts as biochemical, rhesus macaque. The procedure:
as §1
In a typical experiment the PDE2 inhibitory activity of the compounds of the present invention was determined in accordance with the following experimental method. Rhesus PDE2A3 was amplified from rhesus macaque brain cDNA (Biochain Institute, Hayward, Calif.) using primers based on human PDE2A sequence (accession NM_002599.3) where the forward primer containing a Kozak consensus was 5′-[…]-3′ and the reverse primer was 5′-[…]-3′. Amplification with Easy-A High-Fidelity PCR cloning enzyme (Stratagene, La Jolla, Calif.) was 95° C. for 2 minutes followed by thirty three cycles of 95° C. for 40 seconds, 52° C. for 30 seconds, and 72° C. for 2 minutes 48 seconds. Final extension was 72° C. for 7 minutes. The PCR product was TA cloned into pcDNA3.3-TOPO (Invitrogen, Carlsbad, Calif.) according to standard protocol. A consensus sequence was developed from multiple clones and then deposited into GenBank (EU812167). AD293 cells (Stratagene, La Jolla, Calif.) with 70-80% confluency were transiently transfected with rhesus PDE2A3/pcDNA3.3-TOPO using Lipofectamine 2000 according to manufacturer specifications (Invitrogen, Carlsbad, Calif.). Cells were harvested 48 hours post-transfection and lysed by sonication (setting 3, 10×5 sec pulses) in a buffer containing 20 mM HEPES pH 7.4, 1 mM EDTA and Complete Protease Inhibitor Cocktail Tablets (Roche, Indianapolis, Ind.). Lysate was collected by centrifugation at 75,000×g for 20 minutes at 4° C. and supernatant utilized for evaluation of PDE2 activity. The fluorescence polarization assay for cyclic nucleotide phosphodiesterases was performed using an IMAP® FP kit supplied by Molecular Devices, Sunnyvale, Calif. (product # R8139). […] Assays were performed at room temperature in 384-well microtiter plates with an incubation volume of 20.2 μL. Solutions of test compounds were prepared in DMSO and serially diluted with DMSO to yield 8 μL of each of 10 solutions differing by 3-fold in concentration, at 32 serial dilutions per plate. […] 0% of inhibition is determined by using DMSO (1% final concentrations).
A Labcyte Echo 555 (Labcyte, Sunnyvale, Calif.) is used to dispense 200 nL from each well of the titration plate to the 384 well assay plate. Ten microliters of a solution of enzyme (1/2000 final dilution from aliquots; sufficient to produce 20% substrate conversion) was added to the assay plate. Next 10 uL of a separate solution of the substrate FAM-labeled cAMP (50 nM final concentration product # R7506 from Molecular Devices) and the activator cGMP (1 uM final concentration), prepared in the assay buffer (10 mM Tris HCl, pH 7.2, 10 mM MgCl2, 0.05% NaN3 0.01% Tween-20, and 1 mM DTT) was added to the assay plate and shaken to mix. The reaction is allowed to proceed at room temperature for 60 minutes. A binding solution is then made from the kit components, comprised of 80% Solution A, 20% Solution B and binding reagent at a volume of 1/600 the total binding solution. The enzymatic reaction is stopped by addition of 60 μL of the binding solution to each well of the assay plates and the plates are sealed and shaken for 30 seconds. The plate was incubated at room temperature for at least one hour prior to determining the fluorescence polarization (FP). The parallel and perpendicular fluorescence of each well of the plate was measured using a Tecan Genios Pro plate reader (Tecan, Switzerland) or Perkin Elmer EnVision™ plate reader (Waltham, Mass.). Fluorescence polarization (mP) was calculated from the parallel (S) and perpendicular (P) fluorescence of each sample well and the analogous values for the median control well, containing only substrate (So and Po), using the following equation: Polarization (mP)=1000*(S/So−P/Po)/(S/So+P/Po).

Setting [1] is: LabA, read-out: hPDE2 Ki (nM) LabA.
The mark [2] stands for this setting: LabA, read-out: rhPDE2 Ki (nM) LabA.
The mark [3] stands for this setting: LabB, read-out: rhPDE2 Ki (nM) LabB.
Where [4] appears, read: LabB, read-out: hPDE2 Ki (nM) LabB.

Each structure is given as a SMILES string. Read-outs that look alike come from different tables or passages of the source.

As a reminder, the Ki is the equilibrium dissociation constant of an inhibitor or competing ligand from its target.

Sequence of Rhesus PDE2A3 (B3VTJ2 1-941): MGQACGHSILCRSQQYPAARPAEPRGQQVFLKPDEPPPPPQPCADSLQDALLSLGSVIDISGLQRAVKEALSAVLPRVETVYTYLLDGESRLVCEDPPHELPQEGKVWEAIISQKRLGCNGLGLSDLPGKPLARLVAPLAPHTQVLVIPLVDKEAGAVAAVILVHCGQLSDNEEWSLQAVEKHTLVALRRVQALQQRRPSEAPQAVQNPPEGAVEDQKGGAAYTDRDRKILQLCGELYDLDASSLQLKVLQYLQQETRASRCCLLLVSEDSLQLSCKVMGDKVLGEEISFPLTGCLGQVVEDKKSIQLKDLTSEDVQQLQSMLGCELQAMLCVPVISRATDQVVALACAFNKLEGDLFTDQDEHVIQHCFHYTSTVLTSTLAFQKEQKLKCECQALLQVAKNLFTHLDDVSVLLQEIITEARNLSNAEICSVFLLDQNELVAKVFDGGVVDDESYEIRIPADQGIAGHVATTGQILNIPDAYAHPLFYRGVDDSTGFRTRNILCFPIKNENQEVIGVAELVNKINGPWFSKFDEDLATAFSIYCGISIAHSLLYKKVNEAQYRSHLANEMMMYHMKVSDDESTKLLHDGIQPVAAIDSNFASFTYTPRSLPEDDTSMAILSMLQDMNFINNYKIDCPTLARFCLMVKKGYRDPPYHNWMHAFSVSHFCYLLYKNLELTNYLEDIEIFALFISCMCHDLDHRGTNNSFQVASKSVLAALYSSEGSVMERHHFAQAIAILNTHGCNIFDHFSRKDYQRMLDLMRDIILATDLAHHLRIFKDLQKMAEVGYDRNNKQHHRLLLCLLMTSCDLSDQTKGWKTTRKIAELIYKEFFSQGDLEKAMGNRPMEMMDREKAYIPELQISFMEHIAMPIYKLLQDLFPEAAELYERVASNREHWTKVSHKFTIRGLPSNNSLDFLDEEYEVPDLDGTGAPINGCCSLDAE
Sequence of human PDE2A1 (O00408 other isoform, or with tags, fused parts or gaps): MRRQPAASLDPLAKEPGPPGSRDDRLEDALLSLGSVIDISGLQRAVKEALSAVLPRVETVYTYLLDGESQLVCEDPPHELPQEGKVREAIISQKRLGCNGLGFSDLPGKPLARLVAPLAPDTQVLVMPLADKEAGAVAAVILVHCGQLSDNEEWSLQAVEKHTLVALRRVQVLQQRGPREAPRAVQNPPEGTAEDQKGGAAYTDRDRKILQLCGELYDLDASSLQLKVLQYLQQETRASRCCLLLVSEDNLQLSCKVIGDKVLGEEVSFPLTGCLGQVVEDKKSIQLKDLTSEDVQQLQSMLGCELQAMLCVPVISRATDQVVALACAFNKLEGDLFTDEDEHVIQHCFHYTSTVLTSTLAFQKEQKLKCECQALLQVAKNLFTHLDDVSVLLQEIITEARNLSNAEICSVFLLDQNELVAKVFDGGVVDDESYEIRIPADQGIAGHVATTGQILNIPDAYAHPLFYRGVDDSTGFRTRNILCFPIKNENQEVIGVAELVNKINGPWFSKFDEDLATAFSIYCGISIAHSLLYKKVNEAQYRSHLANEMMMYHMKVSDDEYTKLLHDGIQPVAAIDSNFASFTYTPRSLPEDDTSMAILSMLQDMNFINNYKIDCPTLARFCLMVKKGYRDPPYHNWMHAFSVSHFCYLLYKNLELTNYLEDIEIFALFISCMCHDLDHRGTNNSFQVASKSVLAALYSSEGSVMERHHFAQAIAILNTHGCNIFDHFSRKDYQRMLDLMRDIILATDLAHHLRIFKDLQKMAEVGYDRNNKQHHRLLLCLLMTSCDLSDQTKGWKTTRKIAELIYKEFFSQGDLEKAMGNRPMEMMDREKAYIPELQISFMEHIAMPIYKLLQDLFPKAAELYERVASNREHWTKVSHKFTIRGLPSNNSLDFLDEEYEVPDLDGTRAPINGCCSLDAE

For `Cc1nc(-c2cn([C@H](C)c3ccc(C(F)(F)F)cc3F)cn2)cc(=O)[nH]1` (single isomer, unassigned) [Example 15], the Ki on human PDE2A1 (setting [1]) amounted to 21 nM; on Rhesus PDE2A3 (setting [2]), 24 nM; on Rhesus PDE2A3 (setting [3]), 46 nM.
With `Cc1nc(-c2nnc([C@H](C)c3ccc(C(F)(F)F)cc3)s2)cc(=O)[nH]1` (single isomer, unassigned) [Example 6], the Ki amounted to 6 nM at human PDE2A1 (setting [1]), 12 nM at human PDE2A1 (setting [4]), 10 nM on Rhesus PDE2A3 (setting [2]) and 13 nM on Rhesus PDE2A3 (setting [3]).
Regarding `Cc1nc(-c2cc(C(C)c3ccc(C(C)(F)F)cc3)ncn2)cc(=O)[nH]1` (single isomer, unassigned) [Example 36, (R)- or (S)-6′-(1-(4-(1,1-difluoro-ethyl)phenyl)ethyl)-2-methyl-[4,4′-bipyrimidin]-6(1H)-one], at human PDE2A1 (setting [4]), the Ki was found to be 20 nM.
With `COc1ccc(Cc2nc(-c3cn(C(C)c4ccc(C(F)(F)F)cc4F)cn3)cc(=O)[nH]2)cc1OC` (single isomer, unassigned) [Example 19, (R)- or (S)-2-(3,4-dimethoxy-benzyl)-6-(1-(1-(2-fluoro-4-(trifluoromethyl)phenyl)ethyl)-1H-imidazol-4-yl)pyrimidin-4(3H)-one], the inhibition constant Ki at human PDE2A1 (setting [4]) was 0.4 nM; at Rhesus PDE2A3 (setting [2]) it was 0.2 nM; at Rhesus PDE2A3 (setting [3]), 0.4 nM.
In the case of `Cc1nc(-c2cc(C(C)c3ccc(C(F)F)c(F)c3)ncn2)cc(=O)[nH]1` (single isomer, unassigned) [Example 39, (S)- or (R)-6′-(1-(4-(difluoro-methyl)-3-fluoro-phenyl)ethyl)-2-methyl-[4,4′-bipyrimidin]-6(1H)-one], on human PDE2A1 (setting [4]), the Ki was found to be 174 nM.
As for `Cc1nc(-c2cc(C(C)c3ccc(C(C)(F)F)cc3)ncn2)cc(=O)[nH]1` (single isomer, unassigned) [Example 37, (S)- or (R)-6′-(1-(4-(1,1-difluoro-ethyl)phenyl)ethyl)-2-methyl-[4,4′-bipyrimidin]-6(1H)-one], the Ki on human PDE2A1 (setting [4]) turned out to be 65 nM.
Take `Cc1nc(-c2cc([C@H](C)c3ccc(C(C)(C)O)cc3)ncn2)cc(=O)[nH]1` (single isomer, unassigned) [Example 47]: the Ki at human PDE2A1 (setting [4]) stood at 1720 nM.
Regarding `Cc1nc(-c2cc(C(C)c3ccc(OC(F)(F)F)c(F)c3)ncn2)cc(=O)[nH]1` (single isomer, unassigned) [Example 41, (S)- or (R)-6′-(1-(3-fluoro-4-(trifluoro-methoxy)phenyl)ethyl)-2-methyl-[4,4′-bipyrimidin]-6(1H)-one], the Ki on human PDE2A1 (setting [4]) was 212 nM.
For `Cc1nc(-c2cc(C(C)c3ccc(C(F)F)c(F)c3)ncn2)cc(=O)[nH]1` (single isomer, unassigned) [Example 38, (R)- or (S)-6′-(1-(4-(difluoro-methyl)-3-fluoro-phenyl)ethyl)-2-methyl-[4,4′-bipyrimidin]-6(1H)-one], the Ki on human PDE2A1 (setting [4]) is 30 nM.
On to `Cc1nc(-c2cc(C(C)c3ccc(C(F)(F)F)cc3)ncn2)cc(=O)[nH]1` (single isomer, unassigned) [Example 33], for which, at human PDE2A1 (setting [4]), the Ki came to 20 nM.
Regarding `Cc1nc(-c2cc(C(C)c3ccc(OC(F)(F)F)c(F)c3)ncn2)cc(=O)[nH]1` (single isomer, unassigned) [Example 40, (R)- or (S)-6′-(1-(3-fluoro-4-(trifluoro-methoxy)phenyl)ethyl)-2-methyl-[4,4′-bipyrimidin]-6(1H)-one], at human PDE2A1 (setting [4]), the Ki stood at 1.8 nM.
On to `Cc1nc(-c2cc(C(C)c3ccc(C(F)(F)F)cc3)ncn2)cc(=O)[nH]1` (single isomer, unassigned) [Example 32, (R)- or (S)-2-methyl-6′-(1-(4-(trifluoromethyl)phenyl)ethyl)-[4,4′-bipyrimi-din]-6(1H)-one], for which the Ki on human PDE2A1 (setting [4]) was determined as 64 nM.
`Cc1nc(-c2cc(C(C)c3ccc(OC(F)(F)F)cc3)ncn2)cc(=O)[nH]1` (single isomer, unassigned) [Example 45, (S)- or (R)-2-methyl-6′-(1-(4-(trifluoro-methoxy)phenyl)ethyl)-[4,4′-bipyrimidin]-6(1H)-one]: the Ki at human PDE2A1 (setting [4]) turned out to be 194 nM.
Regarding `Cc1nc(-c2cc(C(C)c3ccc(OC(F)F)c(F)c3)ncn2)cc(=O)[nH]1` (single isomer, unassigned) [Example 34, (R)- or (S)-6′-(1-(4-(difluoro-methoxy)-3-fluorophenyl)ethyl)-2-methyl-[4,4′-bipyrimidin]-6(1H)-one], the Ki on human PDE2A1 (setting [4]) is 13 nM.
Same read-out and setting: the same measure for `Cc1nc(-c2cc([C@H](C)c3ccc(C(C)(C)O)cc3)ncn2)cc(=O)[nH]1` (single isomer, unassigned) [Example 46]: 890 nM; for `Cc1nc(-c2cc([C@@H](C)c3ccc(C(F)(F)F)cc3F)ncn2)cc(=O)[nH]1` (single isomer, unassigned) [Example 31]: 16 nM; for `Cc1nc(-c2cc(C(C)c3ccc(OC(F)(F)F)cc3)ncn2)cc(=O)[nH]1` (single isomer, unassigned) [Example 44, (R)- or (S)-2-methyl-6′-(1-(4-(trifluoro-methoxy)phenyl)ethyl)-[4,4′-bipyrimidin]-6(1H)-one]: 4.1 nM.

(Values after patent US10195201B2, “Heteroaryl-pyrimidinone compounds as PDE2 inhibitors” (Merck Sharp & Dohme Corp., priority 2015, dated 2019).)
